As a reminder, the Km is the concentration of substrate that gives half-maximal velocity. The term kcat denotes the maximal rate divided by the concentration of active sites.

Activity calls are given as the source filed them. No cut-off for these calls is given here.

In ChEMBL document CHEMBL1145519, “Exploitation of structural and regulatory diversity in glutamate racemases” (Nature, 2007) one finds Km, kcat and Activity data, which are given here for 3 compounds.

The test system of one test is Helicobacter pylori. In words: Increase in UDP-MurNAc-Ala level in Helicobacter pylori. In kind it is functional, organism-based.

Description for Enterococcus faecium: Activity of Enterococcus faecium MurI
Description for Escherichia coli: Activity of Escherichia coli MurI
Description for Staphylococcus aureus: Activity of Staphylococcus aureus MurI

As to `N[C@H](CCC(=O)O)C(=O)O`, the Michaelis constant (Km) with Escherichia coli came to 2100 µM; in the test on Enterococcus faecium it was 240 µM; in the test on Staphylococcus aureus it was 140 µM. For the same compound, the kcat was 43.3 s⁻¹ in the test with Escherichia coli and 0.567 s⁻¹ in the test on Staphylococcus aureus.

On to `CC(C)Cn1c(=O)n(C)c(=O)c2c(-c3ccncc3)n(Cc3cccc4ccccc34)nc21`, for which, in the test with Helicobacter pylori, the outcome was Active.

For `N[C@@H](CCC(=O)O)C(=O)O`, the Km turned out to be 1200 µM in the test with Escherichia coli, 1100 µM in the test on Enterococcus faecium and 4600 µM in the test with Staphylococcus aureus. For the same compound, the kcat in the test on Escherichia coli is 12.2 s⁻¹; in the test on Staphylococcus aureus, 8.5 s⁻¹.
